From ChEMBL document CHEMBL4651402, “Screening of ~5500 FDA-approved drugs and clinical candidates for anti-SARS-CoV-2 activity” (2021)

System: SARS-CoV-2
Assay: microbe, parasite or virus in culture
Details: Severe acute respiratory syndrome coronavirus 2, Vero C1008, 48 h

Row | SMILES | IC50 | IC50 (read-out: pIC50 (converted))
1 | Cc1cn(-c2cc(NC(=O)c3ccc(C)c(Nc4nccc(-c5cccnc5)n4)c3)cc(C(F)(F)F)c2)cn1 [NILOTINIB] | > 20 µM | > 20 µM
2 | CCC[C@@H]1C[C@@H](C(=O)N[C@@H](C(C)O)[C@H]2O[C@H](SC)[C@H](O)[C@@H](O)[C@H]2O)N(C)C1 (stereo partly drawn) | > 20 µM | > 20 µM
3 | CN1CCN2c3ncccc3Cc3ccccc3C2C1 (stereo not drawn) [MIRTAZAPINE] | > 20 µM | > 20 µM
4 | C[C@H]1CCC[C@H](C)N1CCCCNC(=O)C(Oc1ccccc1)c1ccccc1 (stereo partly drawn) | > 20 µM | > 20 µM
5 | Cn1c(=O)c2nc(C3CCCC3)[nH]c2n(C)c1=O [8-CYCLOPENTYLTHEOPHYLLINE] | > 20 µM | > 20 µM
6 | CCN(CC)CCSC(=O)C(c1ccccc1)c1ccccc1 | > 20 µM | > 20 µM
7 | CC(=O)OCCN1CCN(CCCN2c3ccccc3Sc3ccc(Cl)cc32)CC1 [THIOPROPAZATE] | > 20 µM | > 20 µM
8 | CC1CCC(C(C)C)C(=O)C1 (stereo not drawn) | > 20 µM | > 20 µM
9 | COc1ccc(CC(C)C(C)Cc2ccc(OC)c(OC)c2)cc1OC (stereo not drawn) | > 20 µM | > 20 µM
10 | O=C(c1ccccc1)c1ccccc1 [BENZOPHENONE] | > 20 µM | > 20 µM
11 | N=C(N)NC(=O)c1nc(Cl)c(N2CCCCCC2)nc1N [N,N-HEXAMETHYLENEAMILORIDE] | > 20 µM | > 20 µM
12 | CC(C)(C)NCC(O)COc1cccc2c1CCC(=O)N2 (stereo not drawn) [CARTEOLOL] | > 20 µM | > 20 µM
13 | O=C(Nc1cc(Cl)cc(Cl)c1O)c1c(O)c(Cl)cc(Cl)c1Cl [OXYCLOZANIDE] | > 20 µM | > 20 µM
14 | CNC(=O)CN1CCC(Oc2cc3c(Nc4cccc(Cl)c4F)ncnc3cc2OC)CC1 [SAPITINIB] | > 20 µM | > 20 µM
15 | O=C(c1ccc2nccnc2c1)N1CCCCC1 [CX516] | > 20 µM | > 20 µM
16 | NC(=O)c1ccn2c1CS[C@@H]2c1cccnc1 [DACOPAFANT] | > 20 µM | > 20 µM
17 | Nc1nc(=O)n([C@@H]2CS[C@H](CO)O2)cc1F [EMTRICITABINE] | > 20 µM | > 20 µM
18 | CC(C)OC(=O)[C@H](C)N[P@](=O)(CO[C@H](C)Cn1cnc2c(N)ncnc21)Oc1ccccc1 [TENOFOVIR ALAFENAMIDE] | > 20 µM | > 20 µM
19 | COc1ccccc1O [GUAIACOL] | > 20 µM | > 20 µM
20 | CCCCCCCCCCCCCC(=O)O [MYRISTIC ACID] | > 20 µM | > 20 µM
21 | CC(C)(O)CC[C@@H](O)[C@](C)(O)[C@H]1CC[C@@]2(O)C3=CC(=O)[C@@H]4C[C@@H](O)[C@@H](O)C[C@]4(C)[C@H]3CC[C@]12C [20-HYDROXYECDYSONE] | > 20 µM | > 20 µM
22 | COCC1CN=C(c2ccccc2Cl)c2cc(Br)ccc2N1C (stereo not drawn) [METACLAZEPAM] | > 20 µM | > 20 µM
23 | COc1ccc(F)cc1[C@H](C)NC(=O)Cc1ccc(S(=O)(=O)Nc2ncc(CC(C)C)cn2)cc1 [GLIFLUMIDE] | > 20 µM | > 20 µM
24 | N[C@@H]1CCCCN(c2c(F)cc3c(=O)c(C(=O)O)cn(C4CC4)c3c2Cl)C1 [BESIFLOXACIN] | > 20 µM | > 20 µM
25 | Cc1c(Cc2ccc3ccccc3n2)c2cc(F)ccc2n1CC(=O)O [TIMAPIPRANT] | > 20 µM | > 20 µM

Row | SMILES | IC50 | IC50 (read-out: pIC50 (converted))
26 | COc1ccc2nc3cc(Cl)ccc3c(Nc3cc(CN4CCCC4)c(O)c(CN4CCCC4)c3)c2n1 [PYRONARIDINE] | > 20 µM | > 20 µM
27 | Cc1ncc([N+](=O)[O-])n1CCO [METRONIDAZOLE] | > 20 µM | > 20 µM
28 | c1ccc(C2CN=C3NCCN32)cc1 (stereo not drawn) [IMAFEN] | > 20 µM | > 20 µM
29 | C[C@@H]1C[C@H]2[C@@H]3C[C@H](F)C4=CC(=O)C=C[C@]4(C)[C@@]3(Cl)[C@@H](O)C[C@]2(C)[C@H]1C(=O)COC(=O)C(C)(C)C [CLOCORTOLONE PIVALATE] | > 20 µM | > 20 µM
30 | O=C(O)c1cn(C2CC2)c2cc(N3CCC(O)(COc4ccc(N5C[C@H](CO)OC5=O)cc4F)CC3)c(F)cc2c1=O [CADAZOLID] | > 20 µM | > 20 µM
31 | O=C1CN=C(c2ccccc2Cl)c2cc(Cl)ccc2N1 [DELORAZEPAM] | > 20 µM | > 20 µM
32 | CCCC(=O)c1cc(F)ccc1OCC(O)CNC(C)(C)C (stereo not drawn) [BUTOFILOLOL] | > 20 µM | > 20 µM
33 | O[C@](Cn1cncn1)(Cn1cnc(/C=C/c2ccc(OCC(F)(F)C(F)F)cc2)n1)c1ccc(F)cc1F | > 20 µM | > 20 µM
34 | C[C@]12O[C@H](C[C@]1(O)CO)n1c3ccccc3c3c4c(c5c6ccccc6n2c5c31)CNC4=O [LESTAURTINIB] | > 20 µM | > 20 µM
35 | Cc1cn([C@H]2C[C@H](F)[C@@H](CO)O2)c(=O)[nH]c1=O [ALOVUDINE] | > 100 µM | > 100 µM
36 | Cc1ccc(S(=O)(=O)NC(=O)NC2CCCCCCC2)cc1 [GLYOCTAMIDE] | > 20 µM | > 20 µM
37 | NS(=O)(=O)c1cc(C(=O)NN2CC3C4CCC(C4)C3C2)ccc1Cl (stereo not drawn) | > 20 µM | > 20 µM
38 | CC1CNc2c(cccc2S(=O)(=O)N[C@@H](CCCNC(=N)N)C(=O)N2CC[C@@H](C)C[C@@H]2C(=O)O)C1 (stereo partly drawn) [ARGATROBAN] | > 20 µM | > 20 µM
39 | C[C@]1(Cn2ccnn2)[C@H](C(=O)O)N2C(=O)C[C@H]2S1(=O)=O [TAZOBACTAM] | > 20 µM | > 20 µM
40 | CC(COc1ccccc1)NC(C)C(O)c1ccc(O)cc1 (stereo not drawn) [ISOXSUPRINE] | > 20 µM | > 20 µM
41 | CN[C@H]1CCN(c2cc(NCC3CC3)nc(N)n2)C1 | > 20 µM | > 20 µM
42 | O=C1CCCC2C3CC(CN12)[C@@H]1CCCCN1C3 (stereo partly drawn) | > 20 µM | > 20 µM
43 | Oc1ccc(C(O)CNCCCCCCNCC(O)c2ccc(O)c(O)c2)cc1O (stereo not drawn) [HEXOPRENALINE] | > 20 µM | > 20 µM
44 | O=C(OCc1ccccc1)c1ccccc1 [BENZYL BENZOATE] | > 20 µM | > 20 µM
45 | CC(=O)[C@H]1CC[C@H]2[C@@H]3CCC4C[C@@H](O)CC[C@]4(C)[C@H]3CC[C@]12C (stereo partly drawn) | > 20 µM | > 20 µM
46 | O=C(CCCN1CCC(n2c(=S)[nH]c3ccccc32)CC1)c1ccc(F)cc1 [TIMIPERONE] | > 20 µM | > 20 µM
47 | COc1ccc2c(c1)C[C@@H](C)N(CCc1ccc(N)cc1)CC2 | > 20 µM | > 20 µM
48 | Cc1ccc(Nc2c(F)cccc2Cl)c(CC(=O)O)c1 [LUMIRACOXIB] | > 20 µM | > 20 µM
49 | CCC(=O)Nc1c(C)cc(C(=O)N2CCC(N(C)CCc3ccccc3)CC2)cc1C | > 20 µM | > 20 µM
50 | C[C@]12CCC3C(CCC4=C(Cl)C(=O)CC[C@@]43C)C1CCC2O (stereo partly drawn) | > 20 µM | > 20 µM

Row | SMILES | IC50 | IC50 (read-out: pIC50 (converted))
51 | CCCN(CCC)C(=O)Cc1c(-c2ccc(Cl)cc2)nc2ccc(Cl)cn12 [ALPIDEM] | > 20 µM | > 20 µM
52 | CC(=O)N[C@@H](Cc1c[nH]c2ccccc12)C(N)=O [ACETYLTRYPTOPHANAMIDE] | > 20 µM | > 20 µM
53 | CC(C)CC(N)=O [ISOVALERAMIDE] | > 20 µM | > 20 µM
54 | CCOC(=O)C1=C(CN2CCOCC2)NC(c2nccs2)=N[C@H]1c1ccc(F)cc1Br | > 20 µM | > 20 µM
55 | CN(C)CCO[C@@H](c1ccc(Cl)cc1)c1ccccn1 [ROTOXAMINE] | > 20 µM | > 20 µM
56 | O=C(OCC(O)CO)c1ccccc1Nc1ccnc2cc(Cl)ccc12 (stereo not drawn) [GLAFENINE] | > 20 µM | > 20 µM
57 | NCCCCCCN | > 20 µM | > 20 µM
58 | COc1ccccc1OC(=O)C(C)c1ccc(CC(C)C)cc1 (stereo not drawn) | > 20 µM | > 20 µM
59 | O=C(/C=C/c1ccc(O)cc1)c1ccccc1O | > 20 µM | > 20 µM
60 | CN(C)[C@@H](CCOc1cccc2ccccc12)c1ccccc1 [DAPOXETINE] | > 20 µM | > 20 µM
61 | NC1(C(=O)O)CC1 [1-Aminocyclopropane carboxylic acid] | > 20 µM | > 20 µM
62 | CCCN(CC)C(CC)C(=O)Nc1c(C)cccc1C (stereo not drawn) [ETIDOCAINE] | > 20 µM | > 20 µM
63 | OC[C@H]1O[C@@H]2O[C@H]3[C@H](O)[C@@H](O)[C@@H](O[C@H]4[C@H](O)[C@@H](O)[C@@H](O[C@H]5[C@H](O)[C@@H](O)[C@@H](O[C@H]6[C@H](O)[C@@H](O)[C@@H](O[C@H]7[C@H](O)[C@@H](O)[C@@H](O[C@H]1[C@H](O)[C@H]2O)O[C@@H]7CO)O[C@@H]6CO)O[C@@H]5CO)O[C@@H]4CO)O[C@@H]3CO [ALFADEX] | > 20 µM | > 20 µM
64 | CCC(/C=C/C(C)C1CCC2C3CC=C4CC(O)CCC4(C)C3CCC12C)C(C)C (stereo not drawn) | > 20 µM | > 20 µM
65 | C[C@H](CSC(=O)c1ccccc1)C(=O)N1C[C@@H](Sc2ccccc2)C[C@H]1C(=O)O [ZOFENOPRIL] | > 20 µM | > 20 µM
66 | CCCCCCCC(=O)N[C@H](CN1CCCC1)[C@H](O)c1ccc2c(c1)OCCO2 | > 20 µM | > 20 µM
67 | CCOC(=O)c1cncn1[C@@H](C)c1ccccc1 [S-ETOMIDATE] | > 20 µM | > 20 µM
68 | CCOC(=O)[C@@H](N)Cc1ccc(-c2cc(O[C@H](c3ccc(Cl)cc3-n3ccc(C)n3)C(F)(F)F)nc(N)n2)cc1 [TELOTRISTAT ETHYL] | > 20 µM | > 20 µM
69 | N#CC[C@@H](C1CCCC1)n1cc(-c2ncnc3[nH]ccc23)cn1 | > 20 µM | > 20 µM
70 | COc1ccc(CCN(C)CCCC(C#N)(c2cc(OC)c(OC)c(OC)c2)C(C)C)cc1OC (stereo not drawn) [GALLOPAMIL] | > 20 µM | > 20 µM
71 | CC(C)(C)[C@@H](CO)NC(=O)c1nn(-c2c[n+]([O-])ccn2)c2c1C[C@@H]1C[C@H]21 [OLORINAB] | > 20 µM | > 20 µM
72 | COc1cc(Br)c(CC2c3cc(OC)c(OC)cc3CCN2C)cc1OC (racemic) | > 20 µM | > 20 µM
73 | Cc1n[nH]c(=O)[nH]c1=O | > 20 µM | > 20 µM
74 | CN(C)CCCSC(=N)N | > 20 µM | > 20 µM
